{"source": "patent US10500223B2", "about": "“Therapeutic agent for myotonic dystrophy” (Osaka University, priority 2015, dated 2019)", "key": {"[1]": {"system": "Atp2a1 gene exon 22 splicing", "assay": "Aberrant splicing of Atp2a1 exon 22 in MyD model cells (RT-PCR)", "format": "cell-based, mouse", "conditions": "C2C12-DMPK800R cells, erythromycin 25 or 50 μM, 72 hours", "procedure": "The MyD model cells were treated with erythromycin, and whether erythromycin would correct aberrant splicing in exon 22 of the Atp2a1 gene was examined. The same MyD model cells as in Example 1 (C2C12-DMP[…]) were used. The same erythromycin as in Example 1 was used. To the medium of the MyD model cells, erythromycin was added at 0, 25 or 50 μM, and after 72 hours, the total RNA was extracted using RNeasy Mini Plus Kit (trade name, Qiagen). As a control, normal C2C12 cells were cultured in a medium without erythromycin, and the total RNA was similarly extracted. For RT-PCR, SuperScript III First-Strand Synthesis System (Invitrogen) was used to prepare cDNA, and after treatment with RNase H, the segment of interest was amplified using the Atp2a1 exon 22 RT primers shown below. The RT-PCR product was electrophoresed on a 2% agarose gel and then stained using GelRed. The normal PCR product and the aberrant PCR product were separately quantified with an image analyzer (Typhoon 9410, GE). Atp2a1 exon 22 RT primers"}, "[2]": {"system": "skeletal muscle chloride channel (Clcn1) gene splicing", "assay": "Aberrant splicing of Clcn1 gene in quadriceps femoris muscle of MyD model mice, high-dose oral erythromycin", "format": "in vivo, mouse", "conditions": "HSA^LR mice, 300, 600, 900 mg/kg gavage once daily for 5 days", "procedure": "High-dose erythromycin was orally administered to MyD model mice, and its effect on aberrant splicing of the skeletal muscle chloride channel (Clcn1) gene in the quadriceps femoris muscle was examined. The same MyD model mice (HSA^LR mice) and wild-type mice as in Example 3 were used. The erythromycin used was “Erythrocin (registered trademark) dry syrup […]% (erythromycin ethylsuccinate dry syrup)” (Abbott). This product was dissolved at 100 mg/mL in purified water before use. The animals were divided into five groups: an erythromycin 300 mg/kg administration MyD group, an erythromycin 600 mg/kg administration MyD group, an erythromycin 900 mg/kg administration MyD group, a physiological saline administration MyD group and a control (wild-type mice) group (n=3 per group). The administration was gavage administration and performed once daily for five consecutive days. On the day of the final administration, the quadriceps femoris muscle was dissected from each mouse. In the same manner as in Example 3, RT-PCR was performed, the normally spliced product and the aberrantly spliced product were separately quantified, and the percentage of the normal product in the total RT-PCR product was calculated. Statistical analysis was performed using t-test."}, "[3]": {"system": "skeletal muscle chloride channel (Clcn1) gene splicing", "assay": "Aberrant splicing of Clcn1 gene in quadriceps femoris muscle of MyD model mice, usual-dose oral erythromycin", "format": "in vivo, mouse", "conditions": "HSA^LR mice, 50 mg/kg gavage once daily for 21 days, vs physiological saline MyD group", "procedure": "Usual-dose erythromycin was orally administered to MyD model mice, and its effects on muscle contraction in the quadriceps femoris muscle and on aberrant splicing of the skeletal muscle chloride channel (Clcn1) gene in the quadriceps femoris muscle were examined. The same MyD model mice (HSA^LR mice) and wild-type mice as in Example 3 were used. As with the case in Example 4, “Erythrocin (registered trademark) dry syrup […]% (erythromycin ethylsuccinate dry syrup)” (Abbott) was dissolved at 100 mg/mL in purified water before use. The animals were divided into three groups: an erythromycin 50 mg/kg administration MyD group, a physiological saline administration MyD group and a control (wild-type mice) group (n=3 per group). The administration was gavage administration and performed once daily for 21 consecutive days. On the day of the final administration, the quadriceps femoris muscle was dissected from each mouse. In the same manner as in Example 3, RT-PCR was performed, and the normally spliced product and the aberrantly spliced product were separately quantified. Statistical analysis was performed using t-test."}, "[4]": {"system": "skeletal muscle chloride channel (Clcn1) gene splicing", "assay": "Aberrant splicing of Clcn1 gene in quadriceps femoris muscle of MyD model mice, intraperitoneal erythromycin", "format": "in vivo, mouse", "conditions": "HSA^LR mice, 150 mg/kg intraperitoneal once daily for 8 days, vs physiological saline MyD group", "description": "Erythromycin was intraperitoneally administered to MyD model mice, and its effects on muscle contraction in the quadriceps femoris muscle and on aberrant splicing of the skeletal muscle chloride channel (Clcn1) gene in the quadriceps femoris muscle were examined. The MyD model mice used were HSA^LR mice, which were kindly provided by Dr. Charles Thornton (University of Rochester) and bred in the laboratory animal facility of Osaka University. The HSA^LR mice are transgenic animals prepared by genomic integration of a hACTA gene (human gene constitutively expressed in myocytes) containing 3′-terminal CTG repeats expanded to 220, and manifest the symptoms of MyD upon the expression of mRNA with expanded CUG repeats in the myocytes (Science, 2000, 289 (5485), 1769-73). As a control, wild-type mice (FVB/NJcl mice, purchased from CLEA Japan) were used. Male and female mice aged 8 weeks were used for the experiment. The erythromycin used was “Erythrocin (registered trademark) for intravenous injection 500 mg (erythromycin lactobionate for injection)” (Abbott). This product was dissolved at 50 mg/mL in physiological saline before use. […] The normal PCR product and the aberrant PCR product were separately quantified with an image analyzer (Typhoon 9410, GE), and the percentage of the normal product in the total RT-PCR product was calculated. […]"}, "C2C12-DMPK800R cells": {"system": "C2C12-DMPK800R cells", "assay": "RNA foci formation in MyD model cells (FISH)", "format": "cell-based, mouse", "conditions": "erythromycin 25 or 50 μM, 72 hours, vs medium without erythromycin", "procedure": "MyD model cells were treated with erythromycin, and the number of RNA foci was measured by the FISH (fluorescence in situ hybridization) method.\nThe MyD cell model used was cells established by transfection of a DMPK gene containing 800 CTG repeats into C2C12 cells (C2C12-DMPK800R, Nucleic Acids Research, 2014, 42 (10), 6591-6602). The establishment of the C2C12-DMPK800 cells was performed in the following procedure. Both a plasmid (pLC16) with a DMPK gene sequence containing 800 CTG repeats in the 3′-untranslated region and a plasmid expressing PhiC31 integrase were transfected into the C2C12 mouse myoblast cell line using Nucleofector (trade name, Lonza), and stably expressing cells were selected using a selection medium with puromycin. Next, a plasmid expressing Cre recombinase was transfected into the stably expressing cells, and a clone in which the transcription of 800 CUG had been activated was selected using a selection medium with hygromycin. […]\nThe MyD model cells were cultured in DMEM medium supplemented with 10% FBS and penicillin/streptomycin under the conditions of 37° C. and 5% CO2. […] After mounting in Vectashield with DAPI (trade name, Vector Laboratories), the number of RNA foci in the nucleus was counted with a fluorescence microscope (Keyence PZ-9000)."}, "HSA^LR mice [5]": {"system": "HSA^LR mice", "assay": "Muscle contraction (myotonia) by needle electromyography in MyD model mice, intraperitoneal erythromycin", "format": "in vivo, mouse", "conditions": "150 mg/kg intraperitoneal once daily for 8 days, quadriceps femoris muscle, 24 h after final administration, n=3", "experimental": "The animals were divided into three groups: an erythromycin administration MyD group, a physiological saline administration MyD group and a control (wild-type mice) group (n=3 (1 male, 2 females) per group). The dose of erythromycin was 150 mg/kg, and this dose was repeatedly administered once daily for 8 days. The physiological saline administration MyD group was repeatedly given physiological saline once daily for 8 days. Nothing was administered to the control (wild-type mice) group.\nTwenty-four hours after the final administration, needle electromyography was performed in the quadriceps femoris muscle in the mice under anesthesia to record myotonic discharge. […]"}, "HSA^LR mice [6]": {"system": "HSA^LR mice", "assay": "Muscle contraction (myotonia) by needle electromyography in MyD model mice, usual-dose oral erythromycin", "format": "in vivo, mouse", "conditions": "50 mg/kg gavage once daily for 21 days, quadriceps femoris muscle, n=3", "procedure": "Usual-dose erythromycin was orally administered to MyD model mice, and its effects on muscle contraction in the quadriceps femoris muscle and on aberrant splicing of the skeletal muscle chloride channel (Clcn1) gene in the quadriceps femoris muscle were examined. The same MyD model mice (HSA^LR mice) and wild-type mice as in Example 3 were used. As with the case in Example 4, “Erythrocin (registered trademark) dry syrup […]% (erythromycin ethylsuccinate dry syrup)” (Abbott) was dissolved at 100 mg/mL in purified water before use. The animals were divided into three groups: an erythromycin 50 mg/kg administration MyD group, a physiological saline administration MyD group and a control (wild-type mice) group (n=3 per group). The administration was gavage administration and performed once daily for 21 consecutive days. On the day of the final administration, needle electromyography was performed in the quadriceps femoris muscle in the mice under anesthesia to record myotonic discharge."}}, "note": "“And” between values parts separate entries of the source, which are not always exact repeats. Identical values can stand only once.", "data": [{"smiles": "CC[C@H]1OC(=O)[C@H](C)[C@@H](O[C@H]2C[C@@](C)(OC)[C@@H](O)[C@H](C)O2)[C@H](C)[C@@H](O[C@@H]2O[C@H](C)C[C@H](N(C)C)[C@H]2O)[C@](C)(O)C[C@@H](C)C(=O)[C@H](C)[C@@H](O)[C@]1(C)O", "note": "[erythromycin, (2R,3S,4S,5R,6R,8R,10R,11R,12S,13R)-5-(3,4,6-trideoxy-3-dimethylamino-β-D-xylo-hexopyranosyloxy)-3-(2,6-dideoxy-3-C-methyl-3-O-methyl-α-L-ribo-hexopyranosyloxy)-6,11,12-trihydroxy-2,4,6,8,10,12-hexamethyl-9-oxopentadecan-13-olide]", "values": [{"measurement": "percentage of the normal product in the total RT-PCR product (Atp2a1 exon 22)", "setting": "[1]", "value": "significantly increased the percentage of the normal product to a level observed in the normal C2C12 cells"}, {"measurement": "correction of aberrant splicing of the Clcn1 gene (percentage of normal product)", "setting": "[2]", "value": "significantly corrected the aberrant splicing of the Clcn1 gene in a dose dependent manner"}, {"measurement": "percentage of the normal RT-PCR product (Clcn1)", "setting": "[3]", "value": "significantly higher percentage of the normal RT-PCR product"}, {"measurement": "percentage of the normal product in the total RT-PCR product (Clcn1 exon 7a)", "setting": "[4]", "value": "significantly higher percentage of the normal RT-PCR product"}, {"measurement": "percentage of RNA foci positive cells", "setting": "C2C12-DMPK800R cells", "value": "significantly decreased the percentage of RNA foci positive cells in a dose dependent manner"}, {"measurement": "severity of muscle contraction (frequency of myotonic discharge), per mouse", "setting": "HSA^LR mice [5]", "value": "1 (myotonic discharge was observed in less than 50% of the needle insertions.) and no muscle contraction"}, {"measurement": "severity of muscle contraction (frequency of myotonic discharge), per mouse", "setting": "HSA^LR mice [6]", "value": "2 (myotonic discharge was observed in 50% or more and less than 90% of the needle insertions.) and 1 (myotonic discharge was observed in less than 50% of the needle insertions.)"}]}]}
